Tested on: souris SWISS
Assay: Interaction with pentobarbital: pentobarbital sleep time in mice
Format: in vivo
Conditions: 200 mg/kg oral; for effet sur le sommeil au pentobarbital: result in words, mice; for Temps de sommeil (pentobarbital): male SWISS mice, lots of 10, 60 min before pentobarbital 40 mg/kg i.p.
Text: Les essais sont réalisés sur des souris SWISS, EOPS de sexe mâle, pesant de 20 à 24 g, en provenance du centre d'élevage de LE GENEST.
Les animaux sont acclimatés au moins 8 jours à l'animalerie du laboratoire avant les essais.
Les lots sont de 10 souris par test et par produit.
A titre de produits de référence, pour effectuer les essais témoins, on a utilisé les trois substances suivantes : • - N-[(éthyl-1 pyrrolidinyl-2) méthy17méthoxy-2 sulfamoyl-5 benzamide connue sous la désignation sulpiride; • - N-[(éthyl-1 pyrrolidinyl-2)méthy17méthoxy-2 éthylsulfonyl-5 benzamide connue sous la désignation sultopride; • - N-(diéthylamino-2 éthyl) méthoxy-2 méthylsulfonyl-5 benzamide connue sous la désignation tiapride.
Les composés selon l'invention et les substances de référence sont administrés en suspension aqueuse dans l'eau ordinaire à 3% en gomme arabique pour la voie orale (tests d'interactions avec les barbituriques).
Le réactif pharmacologique à savoir le pentobarbital est administré en solution dans du soluté isotonique de NaCl.
Les volumes administrés sont de 0,5 ml d'une solution à 1,6 g/1 pour 20 g de poids corporel par voie intrapérito- néale (40 mg/kg).
Pour effectuer ces essais, on administre à des lots de 10 souris SWISS mâles les composés selon l'invention ou les produits de référence (à savoir sulpiride, sultopride ou tiapride) par voie orale à raison de 200 mg/kg. 60 minutes après l'ingestion des composés selon l'invention ou des produits de référence, on administre aux animaux le pentobarbital sous forme sodique tel que celui commercialisé sous la marque NEMBUTAL. On mesure ensuite : • - le temps d'endormissement, • - le temps de sommeil, et on détermine le paurcentage de variations en plus ou en moins du temps de sommeil. Les résultats de ces essais figurent dans le tableau II suivant.

Row | Structure (SMILES) | effet sur le sommeil au pentobarbital | Temps de sommeil (pentobarbital) [mn]
1 | CCN1CCCC1CNC(=O)c1cc(S(N)(=O)=O)ccc1OC (stereo not shown) [sulpiride, reference compound] | tantôt potentialisateur, tantôt antagoniste | 
2 | COc1cc(OC)c(S(=O)(=O)NCCN2CCOCC2)cc1Cl [Produit 884] |  | 150 ± 24
3 | COc1cc(OC)c(S(=O)(=O)NCCN2CCOCC2)cc1Br [Produit 928] |  | 165 ± 24
4 | COc1cc(OC)c(S(=O)(=O)NCCN2CCCCC2)cc1Cl [Produit 883] |  | 176 ± 12
5 | CCN1CCCC1CNC(=O)c1cc(S(=O)(=O)CC)ccc1OC (stereo not shown) [sultopride, reference compound] | potentialisateurs | 
6 | COc1cc(OC)c(S(=O)(=O)NCCCN2CCOCC2)cc1Br [Produit 933] |  | 180 ± 32
7 | COc1cc(OC)c(S(=O)(=O)NCCN2CCCC2)cc1Br [Produit 926] |  | 168 ± 30
8 | COc1cc(OC)c(S(=O)(=O)NCCCN2CCCCC2)cc1Cl [Produit 888] |  | 140 ± 20
9 | COc1cc(OC)c(S(=O)(=O)NCCN2CCCCC2)cc1Br [Produit 927] |  | 169 ± 26
10 | COc1cc(OC)c(S(=O)(=O)NCCCN2CCOCC2)cc1Cl [Produit 889] |  | 156 ± 15
11 | COc1cc(OC)c(S(=O)(=O)NCCCN2CCCCC2)cc1Br [Produit 932] |  | 142 ± 15
12 | COc1cc(OC)c(S(=O)(=O)NCCN2CCCC2)cc1Cl [Produit 882] |  | 176 ± 21
13 | CCN(CC)CCNC(=O)c1cc(S(C)(=O)=O)ccc1OC [tiapride, N-(diéthylamino-2 éthyl) méthoxy-2 méthylsulfonyl-5 benzamide, reference compound] | potentialisateurs | 

— patent publication EP0064445A1, “N-substituted 2,4-dialkoxybenzene sulfon amides” (CHOAY S.A., priority 1981, dated 1982)
